Results from article PMC9226319, “Peripherally restricted transthyretin-based delivery system for probes and therapeutics avoiding opioid-related side effects” (Nature Communications, 2022).
“And” between values parts separate entries of the source, which are not always exact repeats. Equal values may be shown once. Read-outs that look alike come from different tables or passages of the source.

Legend:
[1] = target: purified human TTR (Homo sapiens, UniProt P02766); assay: Fluorescence polarization (FP) binding assay, ligands to TTR in buffer
[2] = Serum stability assay of AG10-L2-Nal, rat serum; format: in vitro ADME; conditions: 100 µM
Procedure: AG10-L2-Nal (100 μM) was incubated in sera, and the concentration remaining in respective media was determined at 0 and 48 h using HPLC. Bar graphs represent the mean of % compound remaining ± s.d. […] The plasma, brain tissue, and CSF were collected at 30 min after dosing. The ratio of the brain (ng/g) versus plasma concentration (ng/mL) is expressed as the percentage brain to plasma ratio. The ratio of the CSF (ng/mL) versus plasma concentration (ng/mL) is expressed as the percentage CSF to plasma ratio. Bar graphs show the respective mean (±s.d.) (n = 3 for each group). […] The concentration of the test compounds in plasma was determined at different time points and expressed as means ± s.d. of three biological replicates. Source data are provided as a Source Data file. […]
(Taiwan). The experimental procedure was performed as reported12. […]
Serum stability assay of AG10-L2-Nal. […] 100 μL samples were analyzed at 0 h, 24 h, and 48 h time intervals. […] The supernatant was analyzed using Waters™ XBridge C18 column (4.6x250 mm, 5μm) on Waters e2695 separations module HPLC system connected to a Waters 2998 photodiode array detector operating between the UV ranges of 200-400 nm. […]

[3] = target: holo-RBP-TTR interaction (Homo sapiens, UniProt P02766); assay: Effect on holo-RBP-TTR interaction in human serum (cross-linking, Western blot)
[4] = rat; for plasma concentration: individual animals
[5] = rat; for plasma concentration: SC 16 µmol/kg, individual animals
[6] = in vivo; conditions: male, Sprague Dawley, rat, iv, percentage CSF to plasma ratio
[7] = in vitro; conditions: human, % Cell viability, replicates
[8] = target: human mu-opioid receptors (Homo sapiens, UniProt P35372); assay: biochemical; format: biochemical; set-up: host or cells: CHO-K1 (Chinese hamster ovary), membrane preparation
Chain of human mu-opioid receptors (P35372 whole entry): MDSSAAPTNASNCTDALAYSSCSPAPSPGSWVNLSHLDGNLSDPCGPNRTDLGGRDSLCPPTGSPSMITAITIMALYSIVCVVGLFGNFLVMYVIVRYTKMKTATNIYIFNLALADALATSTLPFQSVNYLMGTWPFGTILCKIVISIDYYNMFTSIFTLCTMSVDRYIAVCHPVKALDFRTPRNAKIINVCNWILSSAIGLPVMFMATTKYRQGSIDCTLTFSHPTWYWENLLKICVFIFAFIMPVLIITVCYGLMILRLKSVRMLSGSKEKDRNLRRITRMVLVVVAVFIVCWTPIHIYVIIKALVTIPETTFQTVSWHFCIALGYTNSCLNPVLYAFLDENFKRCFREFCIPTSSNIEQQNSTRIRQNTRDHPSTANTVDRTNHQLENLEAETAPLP

With `C=CCN1CC[C@]23c4c5ccc(O)c4O[C@H]2[C@@H](OCc2cn(CCNCCCCCCOc4cc(OCCCc6c(C)n[nH]c6C)cc(C(=O)O)c4)nn2)CC[C@@]3(O)[C@H]1C5` [AG10-L2-Nal] the Kd [1] was 333 nM, the “% Fluorescence polarization (mean)” value ([1]; log [nM] inhibitor 0.990) was 100.000% and the “% Fluorescence polarization (mean)” value ([1]; log [nM] inhibitor 1.291) was 106.646%. For the same molecule, the “% Fluorescence polarization (mean)” value ([1]; log [nM] inhibitor 1.592) was 105.531%, the “% Fluorescence polarization (mean)” value ([1]; log [nM] inhibitor 1.893) was 103.770% and the “% Fluorescence polarization (mean)” value ([1]; log [nM] inhibitor 2.194) was 97.021%. For the same molecule, the “% Fluorescence polarization (mean)” value ([1]; log [nM] inhibitor 2.495) was 90.708%, the “% Fluorescence polarization (mean)” value ([1]; log [nM] inhibitor 2.796) was 79.479% and the “% Fluorescence polarization (mean)” value ([1]; log [nM] inhibitor 3.097) was 54.083%. For the same molecule, the “% Fluorescence polarization (mean)” value ([1]; log [nM] inhibitor 3.398) was 38.835%, the “% Fluorescence polarization (mean)” value ([1]; log [nM] inhibitor 3.699) was 31.550% and the “% Fluorescence polarization (mean)” value ([1]; log [nM] inhibitor 4.000) was 21.649%. For the same molecule, the “% Fluorescence polarization (mean)” value ([1]; log [nM] inhibitor […]) was 0.000%, the “% compound remaining in rat serum” value ([2]; 0 h, replicates) was 101.22% and 98.78% and 100.03% and the “% compound remaining in rat serum” value ([2]; 37 °C, 48 h, table replicates) was 100% and 99.06% and 98.97% and 99.95%. The “interference with holo-RBP binding to TTR” value ([3]; 20 µM in human serum, 2 h 37 °C) was “does not interfere with”, the “%holo RBP binding to TTR” value ([3]; human serum, quantified from gel image, replicates (Supp Fig.14b)) was 7% and 8.1% and 7.9% and the “fold higher AUCinf than naloxegol” value ([4]; IV 4.84 µmol/kg) was about 23 fold. The “fold higher AUCinf than naloxone” value ([4]; IV 4.84 µmol/kg) was about 12 fold, the “fold increase in half-life compared to naloxegol” value ([4]; IV 4.84 µmol/kg) was 3.5 fold and the “fold increase in half-life compared to naloxone” value ([4]; IV 4.84 µmol/kg) was 7 fold. For the same molecule, the plasma concentration ([4]; IV 4.84 µmol/kg, 0.03 h) was 57263.9 nM and 57506.1 nM, the plasma concentration ([4]; IV 4.84 µmol/kg, 0.5 h) was 2941.9 nM and 1319.6 nM and 2239.7 nM and the plasma concentration ([4]; IV 4.84 µmol/kg, 1 h) was 296.6 nM and 441.9 nM. The plasma concentration ([4]; IV 4.84 µmol/kg, 2 h) was 155 nM and 181.6 nM, the plasma concentration ([4]; IV 4.84 µmol/kg, 4 h) was 92.9 nM and 28.6 nM and 125.9 nM and the plasma concentration ([4]; IV 4.84 µmol/kg, 6 h) was 75.2 nM and 37 nM and 51.6 nM. The plasma concentration ([4]; IV 4.84 µmol/kg, 8 h) was 23 nM and 56.2 nM and 25.7 nM, the plasma concentration ([4]; IV 4.84 µmol/kg, 12 h) was 14.4 nM and 12 nM and the plasma concentration ([4]; IV 4.84 µmol/kg, 24 h) was 3.4 nM and 7.2 nM and 2.7 nM. For the same molecule, the k ([4]; single IV bolus 4.84 µmol/kg) was 0.12 ± 0.02 h⁻¹, the plasma concentration ([5]; 0.03 h) was 1290 nM and 1240 nM and 552 nM and the plasma concentration ([5]; 0.25 h) was 5340 nM and 6840 nM. The plasma concentration ([5]; 0.5 h) was 3960 nM and 4020 nM, the plasma concentration ([5]; 0.75 h) was 3620 nM and 2900 nM and the plasma concentration ([5]; 1 h) was 3480 nM and 3260 nM. For the same molecule, the plasma concentration ([5]; 2 h) was 1350 nM and 1760 nM, the plasma concentration ([5]; 4 h) was 1120 nM and 1540 nM and the plasma concentration ([5]; 6 h) was 623 nM and 938 nM. For the same molecule, the plasma concentration ([5]; 8 h) was 699 nM and 1120 nM, the plasma concentration ([5]; 12 h) was 166 nM and 200 nM and 516 nM and the plasma concentration ([5]; 24 h) was 49.7 nM and 31.1 nM. The k ([5]; single SC dose 16 µmol/kg) was 0.20 ± 0.04 h⁻¹, the Kp [6] was 0.01 and the viability at 72 h, 10 µM ([7]; 10 μM) was 102%. It also gave a viability at 72 h, 100 µM ([7]; 100 μM) of 112%, an IC50 [8] of 7.5 nM and a Kb [8] of 0.81 nM. The “agonism relative to DAMGO” value [8] was 2%, the “fold increase of morphine EC50” value [8] was 950 fold and the “fold more potent than naloxegol in functional assay” value [8] was 10 fold.
